According to patent US20100286215A1, “BIS-AROMATIC COMPOUNDS USEFUL IN THE TREATMENT OF INFLAMMATION” (BIS-AROMATIC COMPOUNDS USEFUL IN THE TREATMENT OF …, priority 2007, published 2010):

molecular target: T1, Recombinant human LTC4 synthase (Homo sapiens, UniProt Q16873); assay: LTC4 synthase assay (conversion of LTA4 methyl ester to LTC4 methyl ester, HPLC); format: biochemical; details: not given
T1 construct: made in house; host or cells: Pichia pastoris ('Piccia pastoralis' [sic])
T1 sequence (Q16873 1-150): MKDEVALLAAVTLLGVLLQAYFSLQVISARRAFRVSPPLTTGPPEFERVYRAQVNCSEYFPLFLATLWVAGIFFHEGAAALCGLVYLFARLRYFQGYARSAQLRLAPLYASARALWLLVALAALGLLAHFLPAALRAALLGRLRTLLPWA
Protocol: In the assay LTC4 synthase catalyses the reaction where the substrate LTA4 methyl ester is converted to LTC4 methyl ester. Recombinant human LTC4 synthase is expressed in Piccia pastoralis and the purified enzyme is dissolved in 25 mM Tris-buffer pH 7.8 and stored at −20° C. The assay is performed in phosphate buffered saline (PBS) pH 7.4, supplemented with 5 mM glutathione (GSH). The reaction is terminated by addition of acetonitrile/MeOH/acetic acid (50/50/1). The assay is performed at rt in 96-well plates. Analysis of the formed LTC4 methyl ester is performed with reversed phase HPLC (Waters 2795 utilizing an Onyx Monolithic C18 column). The mobile phase consists of acetonitrile/MeOH/H2O (32.5/30/37.5) with 1% acetic acid pH adjusted with NH3 to pH 5.6, and absorbance measured at 280 nm with a Waters 2487 UV-detector.
The following is added chronologically to each well: • 1. 50 μl assay buffer, PBS with 5 mM GSH. • 2. 0.5 μl inhibitor in DMSO. • 3. 2 μl LTC4 synthase in PBS. The total protein concentration in this solution is 0.025 mg/ml. Incubation of the plate at room temperature for 10 minutes. • 4. 0.5 μl LTA4 methyl ester. Incubation of the plate at rt for 1 min. • 5. 50 μl stop solution. 80 μl of the incubation mixture is analysed with HPLC.

IC50 | SMILES
0.073 µM | O=C(Nc1ccc(C(=O)c2ccc(NC(=O)c3ccc(C(F)(F)F)cc3F)c(C(=O)O)c2)cc1C(=O)O)c1ccc(C(F)(F)F)cc1 [Example 8, 2-(2-fluoro-4-(trifluoromethyl)benzamido)-5-(4-(4-(tri-fluoromethyl)benzamido)-3-carboxyphenylcarbonyl)-benzoic acid]

same assay, conditions: inhibitor concentration 10 μM

SMILES | Percantage Inhibition at 10 μM (unless specified otherwise)
O=C(c1ccc(Oc2ccc(Cl)cc2)c(C(=O)O)c1)c1ccc(Oc2ccc(Cl)cc2)c(C(=O)O)c1 [11:3, 5-{3-Carboxy-[4-(chlorophenoxy)]-benzoyl}-2-(4-chlorophenoxy)-benzoic acid] | 97%

same assay, conditions: inhibitor concentration 10 μM; read-out: Percantage Inhibition at 10 μM (unless specified otherwise)

inhibition at 10 µM | SMILES
100% | O=C(Nc1ccc(C(=O)c2ccc(NC(=O)c3cccc4c3OC(F)(F)O4)c(C(=O)O)c2)cc1)c1cccc(Cl)c1 [7:6, 5-[4-(3-Chloro-benzoylamino)-benzoyl]-2-[(2,2-difluoro-benzo[1,3]dioxole-4-carbonyl)-amino]-benzoic acid]
75% | CN(c1ccc(F)c(F)c1)c1ccc(C(=O)c2ccc(Nc3ccc(Cl)cc3)cc2)cc1C(=O)O [Example 19, 5-(4-(4-chlorophenylamino)-benzoyl)-2-((3,4-difluoro-phenyl)(methyl)amino)-benzoic acid]
82% | O=C(c1ccc(NC(=O)c2ccc(Cl)cc2Cl)c(C(=O)O)c1)c1ccc(NC(=O)c2ccc(Cl)cc2Cl)c(C(=O)O)c1 [Example 10, 2-(2,4-dichlorobenzamido)-5-(4-(2,4-dichlorobenzamido)-3-carboxyphenylcarbonyl)-benzoic acid]
98% | O=C(c1ccc(NS(=O)(=O)c2ccc(Cl)c(Cl)c2)c(C(=O)O)c1)c1ccc(NS(=O)(=O)c2ccc(Cl)c(Cl)c2)c(C(=O)O)c1 [Example 5, 2-((3,4-dichlorophenyl)sulfonyl-amino)-5-(3-carboxy-4-(((3,4-dichlorophenyl)sulfonyl)amino)-benzoyl)benzoic acid]
90% | CN(c1ccc(Cl)cc1)c1ccc(C(=O)c2ccc(Nc3cccc(C(F)(F)F)c3)c(C(=O)O)c2)cc1 [9:1, 5-{4-[(4-Chloro-phenyl)-methyl-amino]-benzoyl}-2-(3-trifluoromethyl-phenylamino)-benzoic acid]
90% | CN(c1ccc(Cl)cc1)c1ccc(C(=O)c2ccc(Oc3ccc(F)c(F)c3)c(C(=O)O)c2)cc1 [6:3, 5-{4-[(4-Chloro-phenyl)-methyl-amino]-benzoyl}-2-(3,4-difluoro-phenoxy)-benzoic acid]
97% | CN(c1ccc(Cl)cc1)c1ccc(C(=O)c2ccc(Oc3ccccc3Cl)c(C(=O)O)c2)cc1 [6:4, 2-(2-Chloro-phenoxy)-5-{4-[(4-chloro-phenyl)-methyl-amino]-benzoyl}-benzoic acid]
100% | CN(c1ccc(F)c(F)c1)c1ccc(C(=O)c2ccc(NC(=O)c3cc(Cl)ccc3O)cc2)cc1C(=O)O [Example 18, 5-(4-(5-chloro-2-hydroxy-benzamido)benzoyl)-2-((3,4-difluorophenyl)(methyl)-amino)benzoic acid]
96% | COc1ccc(Cl)cc1S(=O)(=O)Nc1ccc(C(=O)c2ccc(NC(=O)c3cccc(Cl)c3)cc2)cc1C(=O)O [7:3, 5-[4-(3-Chloro-benzoylamino)-benzoyl]-2-(5-chloro-2-methoxy-benzenesulfonylamino)-benzoic acid]
87% | O=C(Nc1ccc(C(=O)c2ccc(Nc3ccc(F)c(F)c3)c(C(=O)O)c2)cc1)c1cccc(Cl)c1 [5:11, 5-[4-(3-Chloro-benzoylamino)-benzoyl]-2-(3,4-difluoro-phenylamino)-benzoic acid]
55% | CN(c1ccc(Cl)cc1)c1ccc(C(=O)c2ccc(Nc3ccccc3C(F)(F)F)c(C(=O)O)c2)cc1 [9:2, 5-{4-[(4-Chloro-phenyl)-methyl-amino]-benzoyl}-2-(2-trifluoromethyl-phenylamino)-benzoic acid]
93% | O=C(CC1CCCC1)Nc1ccc(C(=O)c2ccc(NC(=O)c3ccc(Cl)cc3Cl)c(C(=O)O)c2)cc1 [14:1, 5-[4-(2-Cyclopentyl-acetylamino)-benzoyl]-2-(2,4-dichloro-benzoylamino)-benzoic acid]
100% | O=C(Nc1ccc(C(=O)c2ccc(NC(=O)c3ccc(C(F)(F)F)cc3F)c(C(=O)O)c2)cc1C(=O)O)c1ccc(C(F)(F)F)cc1 [Example 8, 2-(2-fluoro-4-(trifluoromethyl)benzamido)-5-(4-(4-(tri-fluoromethyl)benzamido)-3-carboxyphenylcarbonyl)-benzoic acid]
98% | COc1cc(Cl)ccc1Oc1ccc(C(=O)c2ccc(N(C)c3ccc(Cl)cc3)cc2)cc1C(=O)O [6:5, 2-(4-Chloro-2-methoxy-phenoxy)-5-{4-[(4-chloro-phenyl)-methyl-amino]-benzoyl}-benzoic acid]
99% | O=C(c1ccc(NS(=O)(=O)c2ccc(Cl)cc2)cc1)c1ccc(NC(=O)c2cccc(C(F)(F)F)c2F)c(C(=O)O)c1 [7:9, 5-[4-(4-Chloro-benzenesulfonylamino)-benzoyl]-2-(2-fluoro-3-trifluoromethyl-benzoylamino)-benzoic acid]
90% | O=C(c1ccc(Nc2ccc(Cl)nc2)cc1)c1ccc(Nc2ccc(F)c(F)c2)c(C(=O)O)c1 [5:7, 5-[4-(6-Chloro-pyridin-3-ylamino)-benzoyl]-2-(3,4-difluoro-phenylamino)-benzoic acid]
99% | O=C(c1ccc(NS(=O)(=O)c2ccc(Cl)cc2)cc1)c1ccc(NC(=O)c2cccc(Cl)c2Cl)c(C(=O)O)c1 [7:10, 5-[4-(4-Chloro-benzenesulfonylamino)-benzoyl]-2-(2,3-dichloro-benzoylamino)-benzoic acid]
82% | O=C(Nc1ccc(C(=O)c2ccc(NC(=O)c3cccc(Cl)c3O)c(C(=O)O)c2)cc1)c1cccc(Cl)c1 [7:7, 5-[4-(3-Chloro-benzoylamino)-benzoyl]-2-(3-chloro-2-hydroxy-benzoylamino)-benzoic acid]
97% | O=C(Nc1ccc(C(=O)c2ccc(NC(=O)c3cccc(Cl)c3)c(C(=O)O)c2)cc1)c1cccc(Cl)c1 [7:1, 2-(3-Chloro-benzoylamino)-5-[4-(3-chloro-benzoylamino)-benzoyl]-benzoic acid]
96% | O=C(c1ccc(NS(=O)(=O)c2ccc(Cl)cc2)cc1)c1ccc(NC(=O)c2cc(Cl)ccc2O)c(C(=O)O)c1 [7:8, 5-[4-(4-Chloro-benzenesulfonylamino)-benzoyl]-2-(5-chloro-2-hydroxy-benzoylamino)-benzoic acid]
94% | O=C(c1ccc(Nc2ccc(Cl)cc2)cc1)c1ccc(Nc2ccc(F)c(F)c2)c(C(=O)O)c1 [Example 16, 5-(4-(4-chlorophenylamino)-benzoyl)-2-(3,4-difluoro-phenylamino)benzoic acid]
95% | O=C(Nc1ccc(C(=O)c2ccc(Nc3ccc(F)c(F)c3)c(C(=O)O)c2)cc1)Nc1cccc(Cl)c1 [5:1, 5-{4-[3-(3-Chloro-phenyl)-ureido]-benzoyl}-2-(3,4-difluoro-phenylamino)-benzoic acid]

SMILES | inhibition at 10 µM
CCCCOc1ccc(S(=O)(=O)Nc2ccc(C(=O)c3ccc(Nc4ccc(F)c(F)c4)c(C(=O)O)c3)cc2)cc1 [Example 14, 5-(4-(4-butoxyphenylsulfonamido)benzoyl)-2-(3,4-difluorophenylamino)benzoic acid] | 100%
CCCCOc1ccc(S(=O)(=O)Nc2ccc(C(=O)c3ccc(N(C)c4ccc(F)c(F)c4)c(C(=O)O)c3)cc2)cc1 [Example 17, 5-(4-(4-butoxyphenylsulfonamido)benzoyl)-2-((3,4-di-fluorophenyl)(methyl)amino)benzoic acid] | 99%
